Data: PubChem BioAssay AID328 (DTP/NCI, 2004)
Several values for one entry are separate records, joined by “and”; a condition that tells them apart may be missing. Identical values can stand only once. Toxic doses and inconclusive results are not listed. The calls were made as follows: active = survival T/C of 150% or more; inactive = T/C below 125% in these data.

Tests used:
[1] = test system: BDF1 mice, P388 leukemia ip; experiment: NCI In Vivo Anticancer Drug Screen. Data for tumor model P388 Leukemia (intraperitoneal) in B6D2F1 (BDF1) mice; conditions: endpoint: mean survival time, higher = longer survival
Procedure, shortened: (§1)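 T/C = treated-group survival ÷ vehicle-control survival; tumour transplanted into mice before dosing.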

[2] = test system: BDF1 mice, P388 leukemia ip, median survival T/C; experiment: as above; conditions: endpoint: median survival time, higher = longer survival
Procedure, shortened: as §1

[3] = dose: 6.25 mg/kg/injection, schedule: Q01DX009 (ip), vehicle: Klucel (hydroxypropylcellulose) (HPC)
[4] = dose: 25.0 mg/kg/injection, schedule: Q01DX009 (ip), vehicle: Klucel (hydroxypropylcellulose) (HPC)
[5] = dose: 50.0 mg/kg/injection, schedule: Q01DX009 (ip), vehicle: Klucel (hydroxypropylcellulose) (HPC)
[6] = dose: 25.0 mg/kg/injection, schedule: Q04DX003 (ip), vehicle: Klucel (hydroxypropylcellulose) (HPC)
[7] = dose: 50.0 mg/kg/injection, schedule: Q04DX003 (ip), vehicle: Klucel (hydroxypropylcellulose) (HPC)

Measured: T/C

CC1(C)C(=O)C(O)=CC2C1=CCC1C2(C)C(=O)CC2(C)C(C(C)(O)C(=O)CC(O)C(C)(C)O)C(O)CC12C (centres undefined)
inactive: [1]; dose: 4.5 mg/kg/injection, schedule: Q01DX010 (ip), vehicle: carboxymethylcellulose (CMC) 95 % of control | [1]; dose: 9.0 mg/kg/injection, schedule: Q01DX010 (ip), vehicle: carboxymethylcellulose (CMC) 101 % of control | [1]; dose: 36.0 mg/kg/injection, schedule: Q01DX010 (ip), vehicle: carboxymethylcellulose (CMC) 103 % of control

CCN(CC)CCCC(C)NC(=O)c1cccc2c([N+](=O)[O-])cccc12 (centres undefined)
inactive: [1]; dose: 3.12 mg/kg/injection, schedule: Q01DX009 (ip), vehicle: water 94 % of control | [1]; dose: 12.5 mg/kg/injection, schedule: Q01DX009 (ip), vehicle: water 100 % of control | [1]; dose: 25.0 mg/kg/injection, schedule: Q01DX009 (ip), vehicle: water 110 % of control | [1]; dose: 50.0 mg/kg/injection, schedule: Q01DX009 (ip), vehicle: water 95 % of control | [1]; dose: 100.0 mg/kg/injection, schedule: Q01DX009 (ip), vehicle: water 106 % of control

CC(C)(O)/C=C/C(=O)[C@](C)(O)[C@H]1[C@H](O)C[C@@]2(C)[C@@H]3CC=C4[C@@H](C=C(O)C(=O)C4(C)C)[C@]3(C)C(=O)C[C@]12C
inactive: [2]; [3] 100 % of control | [2]; dose: 6.25 mg/kg/injection, schedule: Q04DX003 (ip), vehicle: other 90 % of control | [2]; dose: 12.5 mg/kg/injection, schedule: Q04DX003 (ip), vehicle: other 104 % of control | [2]; [4] 100 % of control | [2]; dose: 25.0 mg/kg/injection, schedule: Q04DX003 (ip), vehicle: other 104 % of control | [2]; [5] 100 % of control | [2]; dose: 50.0 mg/kg/injection, schedule: Q04DX003 (ip), vehicle: other 109 % of control | [1]; dose: 1.5 mg/kg/injection, schedule: Q01DX010 (ip), vehicle: carboxymethylcellulose (CMC) 97 % of control | [1]; dose: 3.0 mg/kg/injection, schedule: Q01DX010 (ip), vehicle: carboxymethylcellulose (CMC) 99 % of control | [1]; dose: 6.0 mg/kg/injection, schedule: Q01DX010 (ip), vehicle: carboxymethylcellulose (CMC) 101 % of control

O=C1C=CC(=C(c2ccccc2)c2ccccc2)C=C1
inactive: [2]; dose: 12.5 mg/kg/injection, schedule: Q04DX003 (ip), vehicle: Klucel (hydroxypropylcellulose) (HPC) 95 % of control | [2]; [6] 100 % of control | [2]; [7] 91 % of control

Nc1c(Br)cc2c(c1Br)Cc1cc(Cl)ccc1-2
inactive: [2]; dose: 6.0 mg/kg/injection, schedule: Q04DX003 (ip), vehicle: Klucel (hydroxypropylcellulose) (HPC) 100 % of control | [2]; dose: 12.0 mg/kg/injection, schedule: Q04DX003 (ip), vehicle: Klucel (hydroxypropylcellulose) (HPC) 100 % of control | [2]; [4] 100 % of control | [2]; [6] 100 % of control | [2]; [5] 87 % of control and 90 % of control and 100 % of control | [2]; [7] 90 % of control | [2]; dose: 200.0 mg/kg/injection, schedule: Q04DX003 (ip), vehicle: Klucel (hydroxypropylcellulose) (HPC) 118 % of control | [2]; dose: 400.0 mg/kg/injection, schedule: Q04DX003 (ip), vehicle: Klucel (hydroxypropylcellulose) (HPC) 95 % of control and 104 % of control

COc1cc2c3cc1Oc1c(OC)c(OC)cc4c1C(Cc1ccc(O)c(c1)-c1cc(ccc1OC)CC3N(C)CC2)N(C)CC4 (centres undefined)
inactive: [2]; dose: 1.56 mg/kg/injection, schedule: Q01DX009 (ip), vehicle: Klucel (hydroxypropylcellulose) (HPC) 91 % of control | [2]; dose: 3.13 mg/kg/injection, schedule: Q01DX009 (ip), vehicle: Klucel (hydroxypropylcellulose) (HPC) 87 % of control | [2]; [3] 87 % of control | [2]; dose: 50.0 mg/kg/injection, schedule: Q01DX009 (ip), vehicle: carboxymethylcellulose (CMC) 88 % of control

COC(=O)CCC(=O)/C=C1/Nc2ccccc2C1=O
inactive: [2]; dose: 50.0 mg/kg/injection, schedule: Q04DX003 (ip), vehicle: saline 90 % of control | [2]; dose: 100.0 mg/kg/injection, schedule: Q04DX003 (ip), vehicle: saline 110 % of control | [2]; dose: 200.0 mg/kg/injection, schedule: Q04DX003 (ip), vehicle: saline 120 % of control

O=c1ccc2cc(-c3c(Oc4cc5ccc(O)cc5oc4=O)ccc4ccc(=O)oc34)c(O)cc2o1
inactive: [2]; dose: 3.0 mg/kg/injection, schedule: Q01DX009 (ip), vehicle: saline 96 % of control | [2]; dose: 6.0 mg/kg/injection, schedule: Q01DX009 (ip), vehicle: saline 111 % of control | [2]; dose: 12.0 mg/kg/injection, schedule: Q01DX009 (ip), vehicle: saline 105 % of control

CSc1cccc(NC(=O)Oc2ccc([N+](=O)[O-])cc2Cl)c1
inactive: [2]; dose: 12.5 mg/kg/injection, schedule: Q01DX009 (ip), vehicle: DMSO 93 % of control | [2]; dose: 50.0 mg/kg/injection, schedule: Q01DX009 (ip), vehicle: DMSO 89 % of control

COC(=O)C1(C(=O)OC)C2CC(C)=C(C)CC21 (centres undefined)
inactive: [2]; dose: 150.0 mg/kg/injection, schedule: Q04DX003 (ip), vehicle: saline 95 % of control | [2]; dose: 300.0 mg/kg/injection, schedule: Q04DX003 (ip), vehicle: saline 95 % of control

Cc1ccc2c(C)c3c(ccc4ccccc43)c[n+]2c1
inactive: [2]; dose: 1.25 mg/kg/injection, schedule: Q01DX009 (ip), vehicle: Klucel (hydroxypropylcellulose) (HPC) 115 % of control | [2]; dose: 1.25 mg/kg/injection, schedule: Q01DX009 (ip), vehicle: saline 115 % of control | [2]; dose: 2.5 mg/kg/injection, schedule: Q01DX009 (ip), vehicle: Klucel (hydroxypropylcellulose) (HPC) 120 % of control | [2]; dose: 2.5 mg/kg/injection, schedule: Q01DX009 (ip), vehicle: saline 100 % of control | [2]; dose: 2.5 mg/kg/injection, schedule: Q04DX003 (ip), vehicle: saline 100 % of control | [2]; dose: 5.0 mg/kg/injection, schedule: Q04DX003 (ip), vehicle: saline 104 % of control | [2]; dose: 10.0 mg/kg/injection, schedule: Q01DX009 (ip), vehicle: saline 90 % of control | [2]; dose: 10.0 mg/kg/injection, schedule: Q04DX003 (ip), vehicle: saline 116 % of control | [2]; dose: 20.0 mg/kg/injection, schedule: Q04DX003 (ip), vehicle: saline 120 % of control

COC1OC(n2cnc3ncn(Cc4ccccc4)c3c2=N)C2OC(C)(C)OC12 (centres undefined)
inactive: [2]; dose: 100.0 mg/kg/injection, schedule: Q01DX001 (ip), vehicle: saline 110 % of control | [2]; dose: 200.0 mg/kg/injection, schedule: Q01DX001 (ip), vehicle: saline 95 % of control
